Results from patent US20100204244A1, “AGENTS FOR TREATMENT OF DIABETIC RETINOPATHY AND DRUSEN FORMATION IN MACULAR DEGENERATION” (ALCON INC., priority 2003, published 2010).

Legend:
[1] = test system: γ-glutamylcysteine synthetase; details: cited from earlier work
[2] = test system: Bovine retinal endothelial cells (BRECs); test: In vitro oxidant stress assay (MTS viable cell assay) in retinal endothelial cells exposed to t-butyl hydroperoxide; format: cell-based
Procedure: The present example provides a study wherein cultured retinal endothelial cells were exposed to an oxidant stress to evaluate the protective effects of pretreatment with quercetin. In addition, the present example provides an assay system for screening compounds for therapeutic activity in nonproliferative diabetic retinopathy.
Bovine retinal endothelial cells (BRECs) (VEC Technologies, Rensselaer, N.Y.) were grown on fibronectin ([…])-coated plasticware at 37° C. in 5% CO2 in MCDB-131 Complete media (VEC Technologies, Rensselaer, N.Y.). For serum-free media (SFM) conditions, MCDB-131 was used supplemented at 5 ml/500 ml with 100× antibiotic/antimycotic, 10 mM L-glutamine, and 0.1% BSA (all from Life Technologies Inc., Grand Island, N.Y.).
The BRECs were seeded at 10,000 cells/well and allowed to attach and grow for three days in 0.2 ml/well in complete media (10% fetal bovine serum (FBS)). The complete media was replaced with SFM for the next twenty-four hours at which time 25 μM quercetin, 100 μM DL-buthionine-(S,R)-sulfoximine (BSO, Sigma, St. Louis, Mo.), and the 0.1% DMSO were added. The next day all media was replaced with SFM (0.1 ml/well) containing 0-500 μM t-butyl hydroperoxide (ICN Biomedicals, Irvine, Calif.). After four hours incubation at 37° C. in 5% CO2 the assay was started by adding 20 μl of a mixture of twenty parts MTS (3-(4,5-dimethythiazol-2-yl)-5-(3-carboxymethoxyphenyl)-2-(4-sulfophenyl)-2H-tetrazolium, inner salt) and one part PMS (phenazine methosulfate) from the Promega ClelTiter 96® AQueous Non-Radioactive Cell Proliferation Assay kit (Promega Corporation, Madison, Wis.). The plates were returned to the incubator for three hours and then net absorbances at 490 nm, obtained by subtraction of a blank mean, were recorded and used as a measure of levels of viable cells.
Using six wells per condition, the assay was carried out three times. The absorbance values were normalized such that the control wells without t-butyl hydroperoxide equaled 100%, and data from the three assays were pooled. An overall statistical difference was found among treatment groups (see FIGURE; ANOVA, P<0.05).

[3] = test system: cultured human RPE cells; details: cited from earlier work
[4] = test system: quinone reductase, glutathione-S-transferase, and glutathione reductase; details: various cell lines including human adult retinal pigment epithelial cells; cited from earlier work
[5] = test system: phase II detoxification enzyme; details: human retinal pigment epithelial cells; cited from earlier work
[6] = test system: experimentally induced diabetic rats; details: oral administration; cited from earlier work

For `O=c1c(O)c(-c2ccc(O)c(O)c2)oc2cc(O)cc(O)c12` [quercetin], the glutathione levels [1] is given as “increase glutathione levels” and the “numbers of viable cells (net absorbance at 490 nm, normalized to control without t-butyl hydroperoxide = 100%)” value ([2]; 25 μM quercetin pretreatment, then 0-500 μM t-butyl hydroperoxide 4 h, versus control group at each t-butyl hydroperoxide concentration) is given as “higher numbers of viable cells than in the control group”.
In the case of `Cc1c(-c2cnccn2)ssc1=S` [oltipraz], the “protection from chemical oxidants” value [3] is given as “Protection of cultured human RPE cells from chemical oxidants”.
In the case of `C[S+]([O-])CCCCN=C=S` (stereo not shown) [sulforaphane], the “protection from chemical oxidants” value [3] is listed as “Protection of cultured human RPE cells from chemical oxidants”, the enzyme induction [4] is listed as “induce quinone reductase, glutathione-S-transferase, and glutathione reductase” and the “induction of a phase II detoxification enzyme” value [5] is listed as “induction of a phase II detoxification enzyme”.
In the case of `O=c1c(-c2ccc(O)cc2)coc2cc(O)cc(O)c12` [genistein], the retinal vascular leakage [6] is listed as “reduces retinal vascular leakage”.
With `CCCCS(=N)(=O)CCC(N)C(=O)O` (racemic) [BS, DL-buthionine-(S,R)-sulfoximine] the cell survival ([2]; 100 μM BSO pretreatment alone, no t-butyl hydroperoxide) was “no effect on cell survival” and the “effect on toxicity of t-butyl hydroperoxide” value ([2]; 100 μM BSO pretreatment, all t-butyl hydroperoxide concentrations) was “significantly enhanced the toxicity”.
For `CC(C)(C)OO` [t-butyl hydroperoxide], the cell survival ([2]; t-butyl hydroperoxide exposure 4 h, all concentrations up to 500 μM) was “significant reductions in cell survival”.
